Where two headings read alike, the source gives them in different places.
Key:
[1] = system: CD34 positive progenitor cells
[2] = system: CFU-GM, BFU-E and CFU-GEMM progenitor cells; conditions: for Cycling Status of Progenitors, BFU-E / Cycling Status of Progenitors, CFU-GEMM / Cycling Status of Progenitors, CFU-GM / Cycling Status of Progenitors, CFU-GM, AGAR Culture: 80 μg/kg s.c.
[3] = human volunteers, 80 μg/kg s.c.
[4] = volunteer P1, 1 Hr after 80 μg/kg s.c.
[5] = volunteer P1, 6 Hr after 80 μg/kg s.c.
[6] = volunteer P1, 9 Hr after 80 μg/kg s.c.
[7] = volunteer P1, Day 2 after 80 μg/kg s.c.
[8] = volunteer P2, 1 Hr after 80 μg/kg s.c.
[9] = volunteer P2, 6 Hr after 80 μg/kg s.c.
[10] = volunteer P2, 9 Hr after 80 μg/kg s.c.
[11] = volunteer P2, Day 2 after 80 μg/kg s.c.
[12] = volunteer P3, 1 Hr after 80 μg/kg s.c.
[13] = volunteer P3, 9 Hr after 80 μg/kg s.c.
[14] = volunteer P3, Day 2 after 80 μg/kg s.c.
[15] = volunteer P4, 1 Hr after 80 μg/kg s.c.
[16] = volunteer P4, 6 Hr after 80 μg/kg s.c.
[17] = volunteer P4, 9 Hr after 80 μg/kg s.c.
[18] = volunteer P4, Day 2 after 80 μg/kg s.c.
[19] = volunteer P5, 1 Hr after 80 μg/kg s.c.
[20] = volunteer P5, 6 Hr after 80 μg/kg s.c.
[21] = volunteer P5, 9 Hr after 80 μg/kg s.c.
[22] = volunteer P5, Day 2 after 80 μg/kg s.c.

## c1cc(CN2CCCNCCNCCCNCC2)ccc1CN1CCCNCCNCCCNCC1 [AMD3100, 1,1′-[1,4-phenylene-bis(methylene)]-bis-1,4,8,11-tetraazacyclotetradecane]
White blood cells; [3]
  time post-administration at which elevation of the white blood cell count maximized: 6 h
White blood cells; [4]
  white blood cells: 14.8 ×10^3 WBC's
White blood cells; volunteer P1, 2 Hr after 80 μg/kg s.c.
  white blood cells: 21.4 ×10^3 WBC's
White blood cells; volunteer P1, 4 Hr after 80 μg/kg s.c.
  white blood cells: 23.2 ×10^3 WBC's
White blood cells; [5]
  white blood cells: 26.2 ×10^3 WBC's
White blood cells; [6]
  white blood cells: 22.3 ×10^3 WBC's
White blood cells; volunteer P1, 30 Min after 80 μg/kg s.c.
  white blood cells: 8.02 ×10^3 WBC's
White blood cells; [7]
  white blood cells: 7.07 ×10^3 WBC's
White blood cells; [8]
  white blood cells: 8.93 ×10^3 WBC's
White blood cells; volunteer P2, 2 Hr after 80 μg/kg s.c.
  white blood cells: 13.5 ×10^3 WBC's
White blood cells; volunteer P2, 4 Hr after 80 μg/kg s.c.
  white blood cells: 18.00 ×10^3 WBC's
White blood cells; [9]
  white blood cells: 19.2 ×10^3 WBC's
White blood cells; [10]
  white blood cells: 19.6 ×10^3 WBC's
White blood cells; volunteer P2, 30 Min after 80 μg/kg s.c.
  white blood cells: 6.53 ×10^3 WBC's
White blood cells; [11]
  white blood cells: 8.03 ×10^3 WBC's
White blood cells; [12]
  white blood cells: 9.28 ×10^3 WBC's
White blood cells; volunteer P3, 4 Hr after 80 μg/kg s.c.
  white blood cells: 18.10 ×10^3 WBC's
White blood cells; volunteer P3, 6 Hr after 80 μg/kg s.c.
  white blood cells: 17.9 ×10^3 WBC's
White blood cells; [13]
  white blood cells: 18.4 ×10^3 WBC's
White blood cells; volunteer P3, 30 Min after 80 μg/kg s.c.
  white blood cells: 7.14 ×10^3 WBC's
White blood cells; [14]
  white blood cells: 4.98 ×10^3 WBC's
White blood cells; [15]
  white blood cells: 7.38 ×10^3 WBC's
White blood cells; volunteer P4, 2 Hr after 80 μg/kg s.c.
  white blood cells: 12.4 ×10^3 WBC's
White blood cells; volunteer P4, 4 Hr after 80 μg/kg s.c.
  white blood cells: 14.6 ×10^3 WBC's
White blood cells; [16]
  white blood cells: 15.8 ×10^3 WBC's
White blood cells; [17]
  white blood cells: 13.9 ×10^3 WBC's
White blood cells; volunteer P4, 30 Min after 80 μg/kg s.c.
  white blood cells: 4.37 ×10^3 WBC's
White blood cells; [18]
  white blood cells: 4.98 ×10^3 WBC's
White blood cells; [19]
  white blood cells: 8.43 ×10^3 WBC's
White blood cells; volunteer P5, 4 Hr after 80 μg/kg s.c.
  white blood cells: 16.90 ×10^3 WBC's
White blood cells; [20]
  white blood cells: 19.3 ×10^3 WBC's
White blood cells; [21]
  white blood cells: 19.00 ×10^3 WBC's
White blood cells; volunteer P5, 30 Min after 80 μg/kg s.c.
  white blood cells: 6.08 ×10^3 WBC's
White blood cells; [22]
  white blood cells: 4.57 ×10^3 WBC's
[1]; [3]
  time post-administration at which elevation of CD34 positive progenitor cells maximized: 6 h
[1]; [4]
  CD34 positive cells: .04 percentage of the total WBC's
[1]; volunteer P1, 3 Hr after 80 μg/kg s.c.
  CD34 positive cells: .07 percentage of the total WBC's
[1]; [5]
  CD34 positive cells: .11 percentage of the total WBC's
[1]; [6]
  CD34 positive cells: .11 percentage of the total WBC's
[1]; [7]
  CD34 positive cells: .08 percentage of the total WBC's
[1]; [8]
  CD34 positive cells: .06 percentage of the total WBC's
[1]; volunteer P2, 3 Hr after 80 μg/kg s.c.
  CD34 positive cells: .08 percentage of the total WBC's
[1]; [9]
  CD34 positive cells: .13 percentage of the total WBC's
[1]; [10]
  CD34 positive cells: .11 percentage of the total WBC's
[1]; [11]
  CD34 positive cells: .12 percentage of the total WBC's
[1]; [12]
  CD34 positive cells: .16 percentage of the total WBC's
[1]; volunteer P3, 3 Hr after 80 μg/kg s.c.
  CD34 positive cells: .06 percentage of the total WBC's
[1]; [13]
  CD34 positive cells: .11 percentage of the total WBC's
[1]; [14]
  CD34 positive cells: .07 percentage of the total WBC's
[1]; [15]
  CD34 positive cells: .07 percentage of the total WBC's
[1]; volunteer P4, 3 Hr after 80 μg/kg s.c.
  CD34 positive cells: .09 percentage of the total WBC's
[1]; [16]
  CD34 positive cells: .09 percentage of the total WBC's
[1]; [17]
  CD34 positive cells: .1 percentage of the total WBC's
[1]; [18]
  CD34 positive cells: .1 percentage of the total WBC's
[1]; [19]
  CD34 positive cells: .12 percentage of the total WBC's
[1]; volunteer P5, 3 Hr after 80 μg/kg s.c.
  CD34 positive cells: .13 percentage of the total WBC's
[1]; [20]
  CD34 positive cells: .2 percentage of the total WBC's
[1]; [21]
  CD34 positive cells: .2 percentage of the total WBC's
[1]; [22]
  CD34 positive cells: .16 percentage of the total WBC's
[2]; P1, T = 1 h after injection
  Cycling Status of Progenitors, BFU-E: 0%
  Cycling Status of Progenitors, CFU-GEMM: 0%
  Cycling Status of Progenitors, CFU-GM: 1%
  Cycling Status of Progenitors, CFU-GM, AGAR Culture: 0%
[2]; P1, T = 3 h after injection
  Cycling Status of Progenitors, BFU-E: 13%
  Cycling Status of Progenitors, CFU-GEMM: 7%
  Cycling Status of Progenitors, CFU-GM: 1%
  Cycling Status of Progenitors, CFU-GM, AGAR Culture: 0%
[2]; P1, T = 6 h after injection
  Cycling Status of Progenitors, BFU-E: 0%
  Cycling Status of Progenitors, CFU-GEMM: 0%
  Cycling Status of Progenitors, CFU-GM: 0%
  Cycling Status of Progenitors, CFU-GM, AGAR Culture: 0%
[2]; P1, T = 9 h after injection
  Cycling Status of Progenitors, BFU-E: 11%
  Cycling Status of Progenitors, CFU-GEMM: 0%
  Cycling Status of Progenitors, CFU-GM: 2%
[2]; P1, T = 24 h after injection
  Cycling Status of Progenitors, BFU-E: 0%
  Cycling Status of Progenitors, CFU-GEMM: 0%
  Cycling Status of Progenitors, CFU-GM: 0%
[2]; P2, T = 1 h after injection
  Cycling Status of Progenitors, BFU-E: 3%
  Cycling Status of Progenitors, CFU-GEMM: 6%
  Cycling Status of Progenitors, CFU-GM: 0%
  Cycling Status of Progenitors, CFU-GM, AGAR Culture: 0%
[2]; P2, T = 3 h after injection
  Cycling Status of Progenitors, BFU-E: 0%
  Cycling Status of Progenitors, CFU-GEMM: 0%
  Cycling Status of Progenitors, CFU-GM: 2%
  Cycling Status of Progenitors, CFU-GM, AGAR Culture: 1%
[2]; P2, T = 6 h after injection
  Cycling Status of Progenitors, BFU-E: 0%
  Cycling Status of Progenitors, CFU-GEMM: 0%
  Cycling Status of Progenitors, CFU-GM: 0%
  Cycling Status of Progenitors, CFU-GM, AGAR Culture: 3%
[2]; P2, T = 9 h after injection
  Cycling Status of Progenitors, BFU-E: 0%
  Cycling Status of Progenitors, CFU-GEMM: 4%
  Cycling Status of Progenitors, CFU-GM: 0%
  Cycling Status of Progenitors, CFU-GM, AGAR Culture: 0%
[2]; P2, T = 24 h after injection
  Cycling Status of Progenitors, BFU-E: 2%
  Cycling Status of Progenitors, CFU-GEMM: 0%
  Cycling Status of Progenitors, CFU-GM: 3%
  Cycling Status of Progenitors, CFU-GM, AGAR Culture: 0%
[2]; P3, T = 1 h after injection
  Cycling Status of Progenitors, BFU-E: 0%
  Cycling Status of Progenitors, CFU-GEMM: 0%
  Cycling Status of Progenitors, CFU-GM: 0%
  Cycling Status of Progenitors, CFU-GM, AGAR Culture: 0%
[2]; P3, T = 3 h after injection
  Cycling Status of Progenitors, BFU-E: 0%
  Cycling Status of Progenitors, CFU-GEMM: 0%
  Cycling Status of Progenitors, CFU-GM: 1%
  Cycling Status of Progenitors, CFU-GM, AGAR Culture: 0%
[2]; P3, T = 6 h after injection
  Cycling Status of Progenitors, BFU-E: 0%
  Cycling Status of Progenitors, CFU-GEMM: 0%
  Cycling Status of Progenitors, CFU-GM: 0%
  Cycling Status of Progenitors, CFU-GM, AGAR Culture: 3%
[2]; P3, T = 9 h after injection
  Cycling Status of Progenitors, BFU-E: 0%
  Cycling Status of Progenitors, CFU-GEMM: 0%
  Cycling Status of Progenitors, CFU-GM: 0%
  Cycling Status of Progenitors, CFU-GM, AGAR Culture: 0%
[2]; P3, T = 24 h after injection
  Cycling Status of Progenitors, BFU-E: 0%
  Cycling Status of Progenitors, CFU-GEMM: 0%
  Cycling Status of Progenitors, CFU-GM: 0%
  Cycling Status of Progenitors, CFU-GM, AGAR Culture: 0%
[2]; P4, T = 1 h after injection
  Cycling Status of Progenitors, BFU-E: 0%
  Cycling Status of Progenitors, CFU-GEMM: 0%
  Cycling Status of Progenitors, CFU-GM: 0%
  Cycling Status of Progenitors, CFU-GM, AGAR Culture: 0%
[2]; P4, T = 3 h after injection
  Cycling Status of Progenitors, BFU-E: 9%
  Cycling Status of Progenitors, CFU-GEMM: 0%
  Cycling Status of Progenitors, CFU-GM: 5%
  Cycling Status of Progenitors, CFU-GM, AGAR Culture: 0%
[2]; P4, T = 6 h after injection
  Cycling Status of Progenitors, BFU-E: 0%
  Cycling Status of Progenitors, CFU-GEMM: 8%
  Cycling Status of Progenitors, CFU-GM: 0%
  Cycling Status of Progenitors, CFU-GM, AGAR Culture: 0%
[2]; P4, T = 9 h after injection
  Cycling Status of Progenitors, BFU-E: 0%
  Cycling Status of Progenitors, CFU-GEMM: 0%
  Cycling Status of Progenitors, CFU-GM: 0%
  Cycling Status of Progenitors, CFU-GM, AGAR Culture: 0%
[2]; P4, T = 24 h after injection
  Cycling Status of Progenitors, BFU-E: 3%
  Cycling Status of Progenitors, CFU-GEMM: 0%
  Cycling Status of Progenitors, CFU-GM: 5%
  Cycling Status of Progenitors, CFU-GM, AGAR Culture: 0%
[2]; P5, T = 1 h after injection
  Cycling Status of Progenitors, BFU-E: 0%
  Cycling Status of Progenitors, CFU-GEMM: 0%
  Cycling Status of Progenitors, CFU-GM: 0%
  Cycling Status of Progenitors, CFU-GM, AGAR Culture: 3%
[2]; P5, T = 3 h after injection
  Cycling Status of Progenitors, BFU-E: 3%
  Cycling Status of Progenitors, CFU-GEMM: 0%
  Cycling Status of Progenitors, CFU-GM: 5%
  Cycling Status of Progenitors, CFU-GM, AGAR Culture: 0%
[2]; P5, T = 6 h after injection
  Cycling Status of Progenitors, BFU-E: 1%
  Cycling Status of Progenitors, CFU-GEMM: 0%
  Cycling Status of Progenitors, CFU-GM: 0%
  Cycling Status of Progenitors, CFU-GM, AGAR Culture: 1%
[2]; P5, T = 9 h after injection
  Cycling Status of Progenitors, BFU-E: 0%
  Cycling Status of Progenitors, CFU-GEMM: 0%
  Cycling Status of Progenitors, CFU-GM: 0%
  Cycling Status of Progenitors, CFU-GM, AGAR Culture: 0%
[2]; P5, T = 24 h after injection
  Cycling Status of Progenitors, BFU-E: 0%
  Cycling Status of Progenitors, CFU-GEMM: 0%
  Cycling Status of Progenitors, CFU-GM: 0%
  Cycling Status of Progenitors, CFU-GM, AGAR Culture: 0%
[2]; human donors, prior to and 1, 3, 6, 9 and 24 hours after injection
  cycling state of progenitors: slow or non-cycling state

Source: patent US10322111B2, “Chemokine receptor binding heterocyclic compounds with enhanced efficacy” (Genzyme Corporation, priority 2001, dated 2019)
